Experiments:
[1] = system: human prostate PC-3 cancer cell line; assay: In vitro cytotoxic screening (MTT assay), PC-3; assay type: cell-based; conditions: for Percentage cytotoxicity on PC-3: average ± standard deviation
Description: (§1) Using human breast MCF-7, colorectal HCT-116, and prostate PC-3 cancer cell lines, preliminary antiproliferative effectiveness of cyclopenta[4,5]thieno[2,3-d][1,2,4]triazolo[1,5-a]pyrimidin-9(6H)-ones 4–16 was established in vitro through MTT assay at different concentrations (100, 50, 25 and 12.5 μM) (Figure 2).
(§2) The cell lines were obtained from Karolinska Center, Department of Oncology and Pathology, Karolinska Institute and Hospital, Stockholm, Sweden. as follows: human breast MCF-7, colorectal HCT-116 and prostate PC-3 cancer cell lines and human skin normal BJ-1 cell line. Exponentially, cells were cultured at a concentration of 10^4 cells/well for 24 h, afterwards fresh medium containing different concentrations of the tested samples was added. Serial two-fold dilution of the tested samples were added using a multichannel pipette. Moreover, all cells were cultivated at 37 °C, 5% CO2 and 95% humidity. Also, incubation of control cells occurred at 37 °C. However, after incubation for 24 h different concentrations of samples (100, 50, 25 and 12.5 µM) were added and the incubation was continued for 48 h, then crystal violet solution 1% was added to each well for 0.5 h to examine the presence of viable cells. After rinsing the wells using water until stain free, 30% glacial acetic acid was added to all wells with shaking the plates on a Microplate reader (TECAN, Inc.) to measure the absorbance at a wavelength of 490 nm. The cytotoxicity was estimated by IC50 in μM, which is the concentration that inhibits 50% of growth of cancer cells. […]
(§3) 1.1. In vitro cytotoxic screening
(§4) The cell lines were obtained from Karolinska Center, Department of Oncology and Pathology, Karolinska Institute and Hospital, Stockholm, Sweden. as follows: human breast MCF-7, colorectal HCT-116 and prostate PC-3 cancer cell lines and human skin normal BJ-1 cell line. Exponentially, cells were placed in 10^4 cells/ well for 24 h, and then add fresh medium which containing different concentration of the tested sample. Serial two-fold dilution of the tested sample were added using a multichannel pipette. Moreover, all cells were cultivated at 37 °C, 5% CO2 and 95% humidity. Also, incubation of control cells occurred at 37 °C. However, after incubation for 24 h different concentrations of sample (100, 50, 25 and 12.5 µM) were added and continued the incubation for 48 h, then, add the crystal violet solution 1% to each well for 0.5 h to examine viable cells. Rinse the wells using water until no stain. After that, add 30% glacial acetic acid to all wells with shaking plates on Microplate reader (TECAN, Inc.) to measure the absorbance, using a test wavelength of 490 nm. Besides, compare the treated samples with the control cell. The cytotoxicity was estimated by IC50 in (μ M), the concentration that inhibits 50% of growth of cancer cell. […]
(§5) The molecular docking simulation of the promising in vitro screened cyclopenta[4,5]thieno[2,3-d][1,2,4]triazolo[1,5-a]pyrimidin-9(6H)-ones 10b and 10e against EGFR and PI3K was done using the Molecular Operating Environment software (MOE-Dock) version 2014.0901. The co-crystallized structures of EGFR and PI3K kinases complexed with their native ligands, erlotinib and quinolone LXX, were downloaded from the protein data bank (PDB codes: 1M17 and 3L54, respectively). All minimizations were performed using MOE until an RMSD gradient of 0.05 kcal∙mol−1Å−1 with MMFF94x force field and the partial charges were automatically calculated. Preparation of the enzyme structures was done for molecular docking using Protonate 3D protocol with the default options in MOE. London dG scoring function and Triangle Matcher placement method were used in the docking protocol. Initially, the original ligands were re-docked into the active binding site of EGFR and PI3K kinases to assess the root-mean-square deviation values. Then, the docking studies of the newly targeted […]

[2] = system: human colorectal HCT-116 cancer cell line; assay: In vitro cytotoxic screening (MTT assay), HCT-116; assay type: cell-based; conditions: for Percentage cytotoxicity on HCT-116: average ± standard deviation
Description: as §1, §2, §3, §4, §5

[3] = system: human breast MCF-7 cancer cell line; assay: In vitro cytotoxic screening (MTT assay), MCF-7; assay type: cell-based; conditions: for IC50: Homo sapiens, MCF7, MCF-7, 48 h incubation, mean of three values, read-out: IC50 (Mean ± SD) MCF-7; for Percentage cytotoxicity on MCF-7: average ± standard deviation
Description: as §1, §2, §3, §4, §5

[4] = system: human skin normal cell line (BJ-1); assay: Cytotoxicity on normal cells (MTT assay), BJ-1; assay type: cell-based; conditions: Homo sapiens; BJ-1 normal skin cells; 48 h incubation; mean of three values; read-out: IC50 (Mean ± SD) BJ-1
Description: It can therefore be concluded that 10b presents a safer cytotoxicity profile than 10e.
as §2, with “However, after incubation for 24 h different concentrations of samples (100, 50, 25 and 12.5 µM) were added and the incubation was continued for 48 h, then crystal violet solution 1% was added to each well for 0.5 h to examine the presence of viable cells.” left out
as §3
The cell lines were obtained from Karolinska Center, Department of Oncology and Pathology, Karolinska Institute and Hospital, Stockholm, Sweden. as follows: human breast MCF-7, colorectal HCT-116 and prostate PC-3 cancer cell lines and human skin normal BJ-1 cell line. Exponentially, cells were placed in 10^4 cells/ well for 24 h, and then add fresh medium which containing different concentration of the tested sample. Serial two-fold dilution of the tested sample were added using a multichannel pipette. Moreover, all cells were cultivated at 37 °C, 5% CO2 and 95% humidity. Also, incubation of control cells occurred at 37 °C. […]
Rinse the wells using water until no stain. After that, add 30% glacial acetic acid to all wells with shaking plates on Microplate reader (TECAN, Inc.) to measure the absorbance, using a test wavelength of 490 nm. Besides, compare the treated samples with the control cell. The cytotoxicity was estimated by IC50 in (μ M), the concentration that inhibits 50% of growth of cancer cell. […]
as §5, with “targeted compounds were estimated within the ATP-binding sites after elimination of the co-crystallized” for “targeted”
Percentage cytotoxicity of 100 µM of the compounds on human tumor cell lines*

| SMILES | IC50 ([1]; Homo sapiens, PC-3, 48 h incubation, mean of three values, read-out: IC50 (Mean ± SD) PC-3) [µM] | IC50 ([2]; Homo sapiens, HCT-116, 48 h incubation, mean of three values, read-out: IC50 (Mean ± SD) HCT-116) [µM] | IC50 [3] [µM] | IC50 [4] [µM] | Percentage cytotoxicity on PC-3 ([1]; 12.5 µM) [%] | Percentage cytotoxicity on PC-3 ([1]; 25 µM) [%] | Percentage cytotoxicity on PC-3 ([1]; 50 µM) [%] | Percentage cytotoxicity on PC-3 ([1]; 100 µM) [%] | Percentage cytotoxicity on HCT-116 ([2]; 12.5 µM) [%] | Percentage cytotoxicity on HCT-116 ([2]; 25 µM) [%] | Percentage cytotoxicity on HCT-116 ([2]; 50 µM) [%] | Percentage cytotoxicity on HCT-116 ([2]; 100 µM) [%] | melting point [°C] | Percentage cytotoxicity on MCF-7 ([3]; 12.5 µM) [%] | Percentage cytotoxicity on MCF-7 ([3]; 25 µM) [%] | Percentage cytotoxicity on MCF-7 ([3]; 50 µM) [%] | Percentage cytotoxicity on MCF-7 ([3]; 100 µM) [%] |
| --- | --- | --- | --- | --- | --- | --- | --- | --- | --- | --- | --- | --- | --- | --- | --- | --- | --- |
| COc1cccc2c1C(=O)c1c(O)c3c(c(O)c1C2=O)C[C@@](O)(C(=O)CO)C[C@@H]3O[C@H]1C[C@H](N)[C@H](O)[C@H](C)O1 [Doxorubicin, reference compound] | 6.8 ± 1.2 | 20.5 ± 2.1 | 40 ± 3.9 | 49.2 ± 1.08 | – | – | – | – | – | – | – | – | – | – | – | – | – |
| CCOC(=O)Cc1nn2c(=O)c3c4c(sc3nc2[nH]1)CCC4 [Compound 6, Ethyl 2-(9-oxo-6,7,8,9-tetrahydro-3H-cyclopenta[4,5]thieno[2,3-d][1,2,4]triazolo[1,5-a]-pyrimidin-2-yl)acetate] | – | – | – | – | 0.0±0.005 | 0.0±0.005 | 0.0±0.005 | 15.1±4.1 | 0.0±0.005 | 0.0±0.005 | 0.0±0.005 | 0.0±0.005 | > 300 | 0.0±0.005 | 0.0±0.005 | 0.0±0.005 | 24±2.5 |
| O=c1c2c3c(sc2nc2[nH]c(=S)[nH]n12)CCC3 [Compound 9, 2-Thioxo-2,3,7,8-tetrahydro-1H-cyclopenta[4,5]thieno[2,3-d][1,2,4]triazolo[1,5-a]pyrimidin-9(6H)-one] | – | – | 71.8 ± 1.05 | – | 3.7±1.3 | 6.3±0.9 | 7.8±1.3 | 19.3±3.5 | 0.0±0.005 | 0.0±0.005 | 0.0±0.005 | 0.0±0.005 | > 300 | 0.0±0.005 | 28.4±2.6 | 32.7±2.4 | 62.5±7.6 |
| O=c1c2c3c(sc2nc2[nH]c(-c4ccc(Cl)cc4)nn12)CCC3 [Compound 10a, 2-(4-Chlorophenyl)-7,8-dihydro-3H-cyclopenta[4,5]thieno[2,3-d][1,2,4]triazolo[1,5-a]pyrimidin-9(6H)-one] | – | – | 60.6 ± 0.45 | – | 20.7±3.9 | 30.7±0.5 | 35.9±0.8 | 40.9±4.1 | 14.4±2.3 | 17.8±1.7 | 17.9±1.7 | 20.3±2.1 | 220 to 222 | 16.5±9.5 | 33.3±0.8 | 44.4±11.2 | 61.4±4.7 |
| CC(=O)OC[C@@H](OC(C)=O)[C@@H](OC(C)=O)[C@H](OC(C)=O)c1nc2nc3sc4c(c3c(=O)n2[nH]1)CCC4 [Compound 12d, (1R,2S,3R)-1-(9-oxo-1,7,8,9-tetrahydro-6H-cyclopenta[4,5]thieno[2,3-d][1,2,4]triazolo[1,5-a]pyrimidin-2-yl)butane-1,2,3,4-tetrayl tetraacetate] | – | – | – | – | 0.0±0.005 | 0.0±0.005 | 0.0±0.005 | 14.1±6.2 | 0.0±0.005 | 0.0±0.005 | 0.0±0.005 | 9.5±1.2 | > 300 | 0.0±0.005 | 0.0±0.005 | 0.0±0.005 | 26.9±4.8 |

— PMC10934261, “Designing Potent Anti-Cancer Agents: Synthesis and Molecular Docking Studies of Thieno[2,3-d][1,2,4]triazolo[1,5-a]pyrimidine Derivatives” (Molecules, 2024)
